Experimental data: patent US8383581B2, “Short-chain peptides as parathyroid hormone (PTH) receptor agonist” (Cadila Healthcare Limited, priority 2009, dated 2013)
Values belong to the molecule of their own block, whether it stands above or below them. Where a SMILES comes first, the peptide text is derived from it. [ ]: non-standard residue; d: D form. ξ: configuration not given here. ξαMeBip(2'-Et,4'-OMe) = CCc1cc(OC)ccc1-c1ccc(CC(C)(N)C(=O)O)cc1; ξBip(2'-Et-4'-OMe) = CCc1cc(OC)ccc1-c1ccc(CC(N)C(=O)O)cc1; Arg(NO2) = N=C(NCCC[C@H](N)C(=O)O)N[N+](=O)[O-]; ξαMePhe(2,6-F2) = CC(N)(Cc1c(F)cccc1F)C(=O)O; ξαMePhe(2-F) = CC(N)(Cc1ccccc1F)C(=O)O; hhPhe = N[C@@H](CCCc1ccccc1)C(=O)O; hArg = N=C(N)NCCCC[C@H](N)C(=O)O; hCit = NC(=O)NCCCC[C@H](N)C(=O)O; Cit = NC(=O)NCCC[C@H](N)C(=O)O; ξαMeNle = CCCCC(C)(N)C(=O)O; Nle = CCCC[C@H](N)C(=O)O; ξαMeP = CC1(C(=O)O)CCCN1; Ac5c = NC1(C(=O)O)CCCC1; Ac3c = NC1(C(=O)O)CC1; Aib = CC(C)(N)C(=O)O

What was measured:
Format in all cases: in vitro ADME
[1] = Stability of peptides in human liver microsomes
Summary of the method: (§1)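 Peptides at 2 μM final incubated 0–24 h at 37 °C (50 mM triethanolamine-HCl, pH 7.8) in each matrix, matrix level set to degrade ~50% PTH(1-34) in 1 h; TFA-quenched, C18 HPLC at 206 nm with ESI-MS peak identification; percent degradation from peak areas at each time point.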

[2] = Stability of peptides in human plasma
Summary of the method: as §1

[3] = Stability of peptides in simulated intestinal fluid (pH 7.5); conditions: for half-life (t1/2) in simulated intestinal fluid / half-life: simulated gi fluid
Summary of the method: as §1

[4] = Stability of peptides in simulated gastric fluid (pH 1.5; HCl, NaCl and Pepsin); conditions: for half-life (t1/2) in simulated gastric fluid / half-life: simulated gi fluid
[5] = human, microsomes, 2 μM, pH 7.8
[6] = simulated intestinal fluid, 2 μM, pH 7.5
[7] = simulated gastric fluid, 2 μM, pH 1.5

half-life (t1/2) in liver microsomes ([1]; human, microsomes): (5) h
% degradation of peptides in 24 h when incubated with liver microsomes [1, 5]: 32%
half-life ([2]; human, plasma): > 1440 min
metabolised at 24 h, 2 μM ([2]; human, plasma, pH 7.8): 0%
half-life ([3]; pH 7.5): > 1440 min
% degradation of peptides in 24 h when incubated with simulated intestinal fluid [3, 6]: 00%
% degradation of peptides in 24 h when incubated with simulated gastric fluid [4, 7]: 00%
half-life ([4]; pH 1.5): > 1440 min
Compound: CCCC[C@H](NC(=O)C(C)(Cc1ccccc1F)NC(=O)[C@H](CCC(N)=O)NC(=O)[C@@H](NC(=O)[C@H](CCC(=O)O)NC(=O)C(C)(C)NC(=O)[C@@H](NC(=O)C(C)(C)N)C(C)C)[C@@H](C)CC)C(=O)N[C@@H](Cc1c[nH]cn1)C(=O)N[C@@H](CCC(N)=O)C(=O)N[C@@H](CCCCNC(=N)N)C(=O)N1CCCC1(C)C(=O)N[C@@H](CCCCN)C(=O)NC(C)(Cc1ccccc1F)C(N)=O (some centres unmarked) [Seq. ID. 56] (H-[Aib]V[Aib]EIQ[ξαMePhe(2-F)][Nle]HQ[hArg][ξαMeP]K[ξαMePhe(2-F)]-NH2)

half-life ([1]; human, microsomes): 30 min
% degradation of peptides in 24 h when incubated with liver microsomes [1, 5]: 100%
half-life (t1/2) in human plasma ([2]; human, plasma): (9) h
metabolised at 24 h, 2 μM ([2]; human, plasma, pH 7.8): 78%
half-life ([3]; pH 7.5): 30 min
% degradation of peptides in 24 h when incubated with simulated intestinal fluid [3, 6]: 100%
% degradation of peptides in 24 h when incubated with simulated gastric fluid [4, 7]: 100%
half-life ([4]; pH 1.5): 30 min
Compound: CCCC[C@H](NC(=O)C(C)(Cc1ccccc1F)NC(=O)[C@H](CCC(N)=O)NC(=O)[C@@H](NC(=O)[C@H](CCC(=O)O)NC(=O)C(C)(C)NC(=O)[C@@H](NC(=O)C1(N)CCCC1)C(C)C)[C@@H](C)CC)C(=O)N[C@@H](Cc1c[nH]cn1)C(=O)N[C@@H](CCC(N)=O)C(=O)N[C@@H](CCCCNC(=N)N)C(=O)NC(C)(C)C(=O)N[C@@H](CCCNC(=N)N[N+](=O)[O-])C(=O)NC(C)(Cc1c(F)cccc1F)C(N)=O (some centres unmarked) [Seq. ID. 270] (H-[Ac5c]V[Aib]EIQ[ξαMePhe(2-F)][Nle]HQ[hArg][Aib][Arg(NO2)][ξαMePhe(2,6-F2)]-NH2)

half-life (t1/2) in liver microsomes ([1]; human, microsomes): (5) h
% degradation of peptides in 24 h when incubated with liver microsomes [1, 5]: 35%
half-life ([2]; human, plasma): > 1440 min
metabolised at 24 h, 2 μM ([2]; human, plasma, pH 7.8): 0%
half-life ([3]; pH 7.5): > 1440 min
% degradation of peptides in 24 h when incubated with simulated intestinal fluid [3, 6]: 00%
% degradation of peptides in 24 h when incubated with simulated gastric fluid [4, 7]: 00%
half-life ([4]; pH 1.5): > 1440 min
Compound: CC[C@H](C)[C@H](NC(=O)[C@H](CCC(=O)O)NC(=O)C(C)(C)NC(=O)[C@@H](NC(=O)C1(NC(=O)[C@@H](N)C(C)C)CC1)C(C)C)C(=O)N[C@@H](CCC(N)=O)C(=O)N[C@@H](CC(C)C)C(=O)NC(C)(CCSC)C(=O)N[C@@H](Cc1c[nH]cn1)C(=O)N[C@@H](CCC(N)=O)C(=O)N[C@@H](CCCCNC(=N)N)C(=O)N[C@@H](C)C(=O)N[C@@H](CCCCNC(=N)N)C(=O)NC(C)(Cc1c[nH]c2ccccc12)C(=O)NC(C)(CCCc1ccccc1)C(N)=O (single isomer, unassigned) [Seq. ID. 950]

The remaining lines, values behind:

Compound: CCCC[C@H](NC(=O)C(C)(Cc1ccccc1F)NC(=O)[C@H](CCC(N)=O)NC(=O)[C@@H](NC(=O)[C@H](CCC(=O)O)NC(=O)C(C)(C)NC(=O)[C@@H](NC(=O)C1(N)CCCC1)C(C)C)[C@@H](C)CC)C(=O)N[C@@H](Cc1c[nH]cn1)C(=O)N[C@@H](CCC(N)=O)C(=O)N[C@@H](CCCCNC(N)=O)C(=O)N[C@@H](C)C(=O)N[C@@H](CCCNC(N)=O)C(=O)NC(C)(Cc1ccccc1F)C(N)=O (some centres unmarked) [Seq. ID. 411] (H-[Ac5c]V[Aib]EIQ[ξαMePhe(2-F)][Nle]HQ[hCit]A[Cit][ξαMePhe(2-F)]-NH2)
half-life ([1]; human, microsomes): 60 min
% degradation of peptides in 24 h when incubated with liver microsomes [1, 5]: 81%
half-life ([2]; human, plasma): 480 min
metabolised at 24 h, 2 μM ([2]; human, plasma, pH 7.8): 77%
half-life (t1/2) in simulated intestinal fluid ([3]; pH 7.5): (6) h
% degradation of peptides in 24 h when incubated with simulated intestinal fluid [3, 6]: 45%
% degradation of peptides in 24 h when incubated with simulated gastric fluid [4, 7]: 14%
half-life (t1/2) in simulated gastric fluid ([4]; pH 1.5): (8) h

Compound: CCCC[C@H](NC(=O)C(C)(Cc1ccccc1F)NC(=O)[C@H](CCC(N)=O)NC(=O)[C@@H](NC(=O)[C@H](CCC(=O)O)NC(=O)C(C)(C)NC(=O)[C@@H](NC(=O)C(C)(C)N)C(C)C)[C@@H](C)CC)C(=O)N[C@@H](Cc1c[nH]cn1)C(=O)N[C@@H](CCC(N)=O)C(=O)NC(C)(C)C(=O)NC(C)(C)C(=O)NC(C)(Cc1c(F)cccc1F)C(=O)NC(C)(Cc1ccccc1F)C(N)=O (some centres unmarked) [Seq. ID. 570] (H-[Aib]V[Aib]EIQ[ξαMePhe(2-F)][Nle]HQ[Aib][Aib][ξαMePhe(2,6-F2)][ξαMePhe(2-F)]-NH2)
half-life ([1]; human, microsomes): 30 min
% degradation of peptides in 24 h when incubated with liver microsomes [1, 5]: 100%
half-life (t1/2) in human plasma ([2]; human, plasma): (9) h
metabolised at 24 h, 2 μM ([2]; human, plasma, pH 7.8): 71%
half-life ([3]; pH 7.5): 30 min
% degradation of peptides in 24 h when incubated with simulated intestinal fluid [3, 6]: 100%
% degradation of peptides in 24 h when incubated with simulated gastric fluid [4, 7]: 100%
half-life ([4]; pH 1.5): 30 min

Compound: CCCC[C@H](NC(=O)[C@H](CC(C)C)NC(=O)[C@H](CCC(N)=O)NC(=O)[C@@H](NC(=O)[C@H](CCC(=O)O)NC(=O)C1(NC(=O)[C@@H](NC(=O)C2(N)CC2)C(C)C)CC1)[C@@H](C)CC)C(=O)N[C@@H](Cc1c[nH]cn1)C(=O)N[C@@H](CCC(N)=O)C(=O)N[C@@H](CCCCNC(=N)N)C(=O)N[C@@H](C)C(=O)N[C@@H](CCCCN)C(=O)NC(Cc1ccc(-c2ccc(OC)cc2CC)cc1)C(=O)N[C@@H](CCCc1ccccc1)C(N)=O (some centres unmarked) [Seq. ID. 610] (H-[Ac3c]V[Ac3c]EIQL[Nle]HQ[hArg]AK[ξBip(2'-Et-4'-OMe)][hhPhe]-NH2)
half-life ([1]; human, microsomes): 60 min
% degradation of peptides in 24 h when incubated with liver microsomes [1, 5]: 78%
half-life ([2]; human, plasma): 480 min
metabolised at 24 h, 2 μM ([2]; human, plasma, pH 7.8): 71%
half-life (t1/2) in simulated intestinal fluid ([3]; pH 7.5): (6) h
% degradation of peptides in 24 h when incubated with simulated intestinal fluid [3, 6]: 40%
% degradation of peptides in 24 h when incubated with simulated gastric fluid [4, 7]: 14%
half-life (t1/2) in simulated gastric fluid ([4]; pH 1.5): (8) h

Compound: CC[C@H](C)[C@H](NC(=O)[C@H](CCC(=O)O)NC(=O)[C@H](CO)NC(=O)[C@@H](NC(=O)[C@@H](N)CO)C(C)C)C(=O)N[C@@H](CCC(N)=O)C(=O)N[C@@H](CC(C)C)C(=O)N[C@@H](CCSC)C(=O)N[C@@H](Cc1cnc[nH]1)C(=O)N[C@@H](CC(N)=O)C(=O)N[C@@H](CC(C)C)C(=O)NCC(=O)N[C@@H](CCCCN)C(=O)N[C@@H](Cc1cnc[nH]1)C(=O)N[C@@H](CC(C)C)C(=O)N[C@@H](CC(N)=O)C(=O)N[C@@H](CO)C(=O)N[C@@H](CCSC)C(=O)N[C@@H](CCC(=O)O)C(=O)N[C@@H](CCCN=C(N)N)C(=O)N[C@H](C(=O)N[C@@H](CCC(=O)O)C(=O)N[C@@H](Cc1c[nH]c2ccccc12)C(=O)N[C@@H](CC(C)C)C(=O)N[C@@H](CCCN=C(N)N)C(=O)N[C@@H](CCCCN)C(=O)N[C@@H](CCCCN)C(=O)N[C@@H](CC(C)C)C(=O)N[C@@H](CCC(N)=O)C(=O)N[C@@H](CC(=O)O)C(=O)N[C@H](C(=O)N[C@@H](Cc1cnc[nH]1)C(=O)N[C@@H](CC(N)=O)C(=O)N[C@@H](Cc1ccccc1)C(=O)O)C(C)C)C(C)C [PTH(1-34), reference compound]
% degradation of peptides in 24 h when incubated with liver microsomes ([1]; human liver microsomes, 37° C., peptide 2 μM): 100%
half-life ([1]; human liver microsomes, 37° C., peptide 2 μM, read-out: half-life (t1/2) in liver microsomes): 6 min
metabolised at 1 h ([1]; pH 7.8, human liver microsomes, within 1 h, 37° C., preliminary experiments, read-out: degradation): ~50%
% degradation of peptides in 24 h when incubated with human plasma ([2]; 24 h, human plasma, 37° C., peptide 2 μM): 97%
half-life ([2]; human plasma, 37° C., peptide 2 μM, read-out: half-life (t1/2) in human plasma): 30 min
metabolised at 1 h ([2]; pH 7.8, human plasma, within 1 h, 37° C., preliminary experiments, read-out: degradation): ~50%
% degradation of peptides in 24 h when incubated with simulated intestinal fluid ([3]; simulated intestinal fluid pH 7.5, 37° C., peptide 2 μM): 100%
metabolised at 1 h ([3]; pH 7.5, simulated intestinal fluid, within 1 h, 37° C., preliminary experiments, read-out: degradation): ~50%
half-life ([3]; simulated intestinal fluid pH 7.5, 37° C., peptide 2 μM, read-out: half-life (t1/2) in simulated intestinal fluid): 12 min
% degradation of peptides in 24 h when incubated with simulated gastric fluid ([4]; simulated gastric fluid pH 1.5, 37° C., peptide 2 μM): 100%
metabolised at 1 h ([4]; pH 1.5, simulated gastric fluid, within 1 h, 37° C., preliminary experiments, read-out: degradation): ~50%
half-life ([4]; simulated gastric fluid pH 1.5, 37° C., peptide 2 μM, read-out: half-life (t1/2) in simulated gastric fluid): 6 min

Compound: CCCCC(C)(NC(=O)[C@H](CC(C)C)NC(=O)[C@H](CCC(N)=O)NC(=O)[C@@H](NC(=O)[C@H](CCC(=O)O)NC(=O)C(C)(C)NC(=O)[C@@H](NC(=O)C(C)(C)NC(=O)[C@@H](N)C(C)C)C(C)C)[C@@H](C)CC)C(=O)N[C@@H](Cc1c[nH]cn1)C(=O)N[C@@H](CCC(N)=O)C(=O)N[C@@H](CCCCNC(=N)N)C(=O)N[C@@H](C)C(=O)N[C@@H](CCCCNC(=N)N)C(=O)NC(C)(Cc1ccc(-c2ccc(OC)cc2CC)cc1)C(=O)N[C@@H](CCCc1ccccc1)C(N)=O (some centres unmarked) [Seq. ID. 915] (H-V[Aib]V[Aib]EIQL[ξαMeNle]HQ[hArg]A[hArg][ξαMeBip(2'-Et,4'-OMe)][hhPhe]-NH2)
half-life ([1]; human, microsomes): 30 min
% degradation of peptides in 24 h when incubated with liver microsomes [1, 5]: 100%
half-life (t1/2) in human plasma ([2]; human, plasma): (9) h
metabolised at 24 h, 2 μM ([2]; human, plasma, pH 7.8): 80%
half-life ([3]; pH 7.5): 30 min
% degradation of peptides in 24 h when incubated with simulated intestinal fluid [3, 6]: 100%
% degradation of peptides in 24 h when incubated with simulated gastric fluid [4, 7]: 100%
half-life ([4]; pH 1.5): 30 min
